How the values were obtained:
[1] = tested on: CCI-induced static allodynia; experiment: Static allodynia (von Frey hairs) in the chronic constriction injury (CCI) rat model of neuropathic pain; type: in vivo
Protocol: Male Sprague Dawley rats weighing 150-400 g obtained from Charles River (Manston, Kent, UK.) were housed in groups of 4. All animals were kept under a 12 h light/dark cycle (lights on at 07 h 00 min) with food and water ad libitum. All experiments were carried out by an observer blind to the treatments and in accordance with the Home Office Animals (Scientific Procedures) Act 1986.
The CCI of sciatic nerve was performed as previously described by Bennett and Xie (Bennett G J, Xie Y K. A peripheral mononeuropathy in rat that produces disorders of pain sensation like those seen in man. Pain: 33:87-107, 1988). Animals were anaesthetised with a 2% isofluorane/O2 mixture. The right hind thigh was shaved and swabbed with 1% iodine. Animals were then transferred to a homeothermic blanket for the duration of the procedure and anaesthesia maintained during surgery via a nose cone. The skin was cut along the line of the thighbone. The common sciatic nerve was exposed at the middle of the thigh by blunt dissection through biceps femoris. About 7 mm of nerve was freed proximal to the sciatic trifurcation, by inserting forceps under the nerve and the nerve gently lifted out of the thigh. Suture was pulled under the nerve using forceps and tied in a simple knot until slight resistance was felt and then double knotted. The procedure was repeated until 4 ligatures (4-0 silk) were tied loosely around the nerve with approx 1 mm spacing. The incision was closed in layers.
Animals were habituated to wire bottom test cages prior to the assessment of allodynia. Static allodynia was evaluated by application of von Frey hairs (Stoelting, Wood Dale, Ill., USA.) in ascending order of force (0.6, 1, 1.4, 2, 4, 6, 8, 10, 15 and 26 grams) to the plantar surface of hind paws. Each von Frey hair was applied to the paw for a maximum of 6 sec, or until a withdrawal response occurred. Once a withdrawal response to a von Frey hair was established, the paw was re-tested, starting with the filament below the one that produced a withdrawal, and subsequently with the remaining filaments in descending force sequence until no withdrawal occurred. The highest force of 26 g lifted the paw as well as eliciting a response, thus represented the cut off point. Each animal had both hind paws tested in this manner. The lowest amount of force required to elicit a response was recorded as paw withdrawal threshold (PWT) in grams. Static allodynia was defined as present if animals responded to a stimulus of, or less than, 4 g, which is innocuous in naive rats (Field M J, Bramwell S, Hughes J, Singh L. Detection of static and dynamic components of mechanical allodynia in rat models of neuropathic pain: are they signalled by distinct primary sensory neurones? Pain, 1999; 83:303-11).
All the experiments were conducted in blind. When the experiment was carried out in more then one day and where technically possible, all groups occurred on each day with equal replication. Static allodynia was expressed as median [LQ; UQ] and analysed by Mann Whitney U test. Dynamic allodynia was expressed as arithmetic mean±SEM and analysed by ANOVA.

[2] = tested on: CCI-induced dynamic allodynia; experiment: Dynamic allodynia (cotton bud stroking) in the chronic constriction injury (CCI) rat model of neuropathic pain; type: in vivo
Protocol: Male Sprague Dawley rats weighing 150-400 g obtained from Charles River (Manston, Kent, UK.) were housed in groups of 4. All animals were kept under a 12 h light/dark cycle (lights on at 07 h 00 min) with food and water ad libitum. All experiments were carried out by an observer blind to the treatments and in accordance with the Home Office Animals (Scientific Procedures) Act 1986. The CCI of sciatic nerve was performed as previously described by Bennett and Xie (Bennett G J, Xie Y K. A peripheral mononeuropathy in rat that produces disorders of pain sensation like those seen in man. Pain: 33:87-107, 1988). Animals were anaesthetised with a 2% isofluorane/O2 mixture. The right hind thigh was shaved and swabbed with 1% iodine. Animals were then transferred to a homeothermic blanket for the duration of the procedure and anaesthesia maintained during surgery via a nose cone. The skin was cut along the line of the thighbone. The common sciatic nerve was exposed at the middle of the thigh by blunt dissection through biceps femoris. About 7 mm of nerve was freed proximal to the sciatic trifurcation, by inserting forceps under the nerve and the nerve gently lifted out of the thigh. Suture was pulled under the nerve using forceps and tied in a simple knot until slight resistance was felt and then double knotted. The procedure was repeated until 4 ligatures (4-0 silk) were tied loosely around the nerve with approx 1 mm spacing. The incision was closed in layers. Dynamic allodynia was assessed by lightly stroking the plantar surface of the hind paw with a cotton bud. To avoid recording general motor activity, care was taken to perform this procedure in fully habituated rats that were not active. At least two measurements were taken at each time point, the mean of which represented the paw withdrawal latency (PWL). […] A pain withdrawal response was often accompanied with repeated flinching or licking of the paw. Dynamic allodynia was considered to be present if animals responded to the cotton stimulus within 8 sec of commencing stroking (Field et al, 1999). All the experiments were conducted in blind. When the experiment was carried out in more then one day and where technically possible, all groups occurred on each day with equal replication. Static allodynia was expressed as median [LQ; UQ] and analysed by Mann Whitney U test. Dynamic allodynia was expressed as arithmetic mean±SEM and analysed by ANOVA.

[3] = CCI rats, PO, 0.3, 1 and 3 mg/kg
[4] = CCI rats, PO, post administration
[5] = CCI rats, oral (PO), doses 0.3, 1 and 3 mg/kg
[6] = highest dose (3 mg/kg PO) vs gabapentin 100 mg/kg PO
[7] = highest dose (3 mg/kg PO), post dose, p<0.01 vs vehicle

## O=C(O)CCCOc1ccc(Cl)c2c1C1(CCCCC1)NC(=O)N2 [5′-(3-(Carboxy)propoxy)-8′-chlorospiro[cyclohexane-1,4′-quinazolin]-2′(1′H)-one]
[1]; [3]
  effect on CCI-induced static allodynia: reversed the maintenance of CCI-induced static and dynamic allodynia in a dose dependent manner
[1]; [4]
  time of peak effect, static allodynia: 1 h
[1]; [5]
  MED for static allodynia: 1 mg/kg
[1]; [6]
  static allodynia reversal, curve profile versus gabapentin: comparable to gabapentin
[1]; [7]
  onset of anti-allodynic effect, static allodynia: 30 min
[2]; [3]
  effect on CCI-induced dynamic allodynia: reversed the maintenance of CCI-induced static and dynamic allodynia in a dose dependent manner
[2]; [4]
  time of peak effect, dynamic allodynia: 1 h
[2]; [5]
  MED for dynamic allodynia: 3 mg/kg
[2]; [6]
  dynamic allodynia effect versus gabapentin: less potent but significantly different from vehicle treated CCI rats
[2]; highest dose (3 mg/kg PO), 1 hrs post administration, vehicle treated CCI rats 3.7±0.7, latency recorded in sec, in s
  dynamic allodynia, paw withdrawal latency (mean±SEM): 10.2±1.4
[2]; [7]
  onset of anti-allodynic effect, dynamic allodynia: 30 min

Reference: patent US20090111837A1, “USE OF PDE7 INHIBITORS FOR THE TREATMENT OF NEUROPATHIC PAIN” (priority 2005, published 2009)
